The subject of this assay is Tumor-initiating cells (NB12). Briefly: IC50 determination, alamarBlue cell survival/growth. As to conditions: 10 serial dilutions 5 μM to 9 nM. Type of assay: cell-based, human. The method, then: Tumor-initiating cells and normal cells were treated with 10 serial dilutions of compounds (5 μM to 9 nM). […] (FS90=normal cells; NB12=tumor-initiating cells).
Tumor-initiating cells (NB12) and normal cells (FS90) were treated with 10 serial dilutions of compounds ranging from 5 μM to 9 nM. […] IC50 values for NB12 are given above each plot.
IC50 values for NB12 and FS90 are given beside each plot.
For each cell type, cells were passaged 5 days prior to screening.
For orientation: The colour change of resazurin is a common sign of viable cells or microbes.

The IC50 is the midpoint of a concentration-inhibition curve. Read a low IC50 as higher potency. Turning to Dequalinium analog, C-14 linker, the IC50 was 1.11 µM.

The record behind these values is patent publication US7632678B2, “Cancer stem cells and uses thereof” (The Hospital for Sick Children, priority 2005, dated 2009).
